In patent US20230085307A1, “PYRIDAZINONE COMPOUND AND HERBICIDE” (NISSAN CHEMICAL CORPORATION, priority 2019, published 2023):

How the values were obtained:
[1] = tested on: late watergrass; experiment: Test Example 1: herbicidal activity, application before weed generation under submerged conditions (Table 16, symbol A); format: in vivo, late watergrass (Echinochloa oryzicola); conditions: amount of applied herbicide 320 g/ha
Summary of the method: (§1)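 Alluvial soil was flooded to 4 cm depth, weed seeds were sown mixed and 2.5-leaf rice seedlings were transplanted. On sowing day, the compound's emulsion, diluted in water to a set dose, was applied to the water surface. Plants grew at 25–30 °C and were scored 0–5 after three weeks.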

[2] = tested on: Japanese bulrush; experiment: Test Example 1: herbicidal activity, application before weed generation under submerged conditions (Table 16, symbol B); format: in vivo, Japanese bulrush (Schoenoplectus juncoides); conditions: amount of applied herbicide 320 g/ha
Summary of the method: as §1

[3] = tested on: oval-leafed pondweed; experiment: Test Example 1: herbicidal activity, application before weed generation under submerged conditions (Table 16, symbol C); format: in vivo, oval-leafed pondweed (Monochoria vaginalis); conditions: amount of applied herbicide 320 g/ha
Summary of the method: as §1

[4] = tested on: barnyard grass; experiment: Test Example 3: herbicidal effect by foliage application, Wagner pot (Table 18, symbol H); format: in vivo, barnyard grass (Echinochloa crus-galli); conditions: 320 g/ha
Summary of the method: (§2)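 Plants were sown in alluvial soil held under 0.1–0.5 cm standing water and grown 14 days in a greenhouse at 25–30 °C. An emulsifiable formulation, water-diluted to the set dose, was then sprayed onto the foliage, and effects were scored three weeks later using previously defined criteria.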

[5] = tested on: Chinese sprangletop; experiment: Test Example 3: herbicidal effect by foliage application, Wagner pot (Table 18, symbol D); format: in vivo, chinese sprangletop (Leptochloa chinensis); conditions: 320 g/ha
Summary of the method: as §2

[6] = tested on: rice flat sedge; experiment: Test Example 3: herbicidal effect by foliage application, Wagner pot (Table 18, symbol E); format: in vivo, rice flat sedge (Cyperus iria); conditions: 320 g/ha
Summary of the method: as §2

[7] = tested on: southern crabgrass; experiment: Test Example 5: herbicidal effect by foliage application, plastic box (Table 20, symbol F); format: in vivo, southern crabgrass (Digitaria ciliaris); conditions: 320 g/ha; for herbicidal effect on F: southern crabgrass (evaluation grade 0-5): foliage application after 14-day growth, evaluated three weeks after application
Summary of the method: (§3)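 Foliar spray test: emulsion formulation diluted in water to a set application rate, sprayed onto 14-day-old plants raised in diluvial soil at 25° C to 30° C under glass. Both herbicidal effect and crop effect rated visually three weeks later.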

[8] = tested on: green foxtail; experiment: Test Example 5: herbicidal effect by foliage application, plastic box (Table 20, symbol G); format: in vivo, green foxtail (Setaria viridis); conditions: 320 g/ha; for herbicidal effect on G: green foxtail (evaluation grade 0-5): foliage application after 14-day growth, evaluated three weeks after application
Summary of the method: as §3

[9] = tested on: barnyard grass; experiment: Test Example 5: herbicidal effect by foliage application, plastic box (Table 20, symbol H); format: in vivo, barnyard grass (Echinochloa crus-galli); conditions: 320 g/ha; for herbicidal effect on H: barnyard grass (evaluation grade 0-5): foliage application after 14-day growth, evaluated three weeks after application
Summary of the method: as §3

[10] = tested on: wild oat; experiment: Test Example 5: herbicidal effect by foliage application, plastic box (Table 20, symbol I); format: in vivo, wild oat (Avena fatua); conditions: 320 g/ha; for herbicidal effect on I: wild oat (evaluation grade 0-5): foliage application after 14-day growth, evaluated three weeks after application
Summary of the method: as §3

[11] = tested on: blackgrass; experiment: Test Example 5: herbicidal effect by foliage application, plastic box (Table 20, symbol J); format: in vivo, blackgrass (Alopecurus myosuroides); conditions: 320 g/ha; for herbicidal effect on J: blackgrass (evaluation grade 0-5): foliage application after 14-day growth, evaluated three weeks after application
Summary of the method: as §3

[12] = tested on: Italian ryegrass; experiment: Test Example 5: herbicidal effect by foliage application, plastic box (Table 20, symbol K); format: in vivo, Italian ryegrass (Lolium multiflorum); conditions: 320 g/ha; for herbicidal effect on K: Italian ryegrass (evaluation grade 0-5): foliage application after 14-day growth, evaluated three weeks after application
Summary of the method: as §3

[13] = tested on: windgrass; experiment: Test Example 5: herbicidal effect by foliage application, plastic box (Table 20, symbol L); format: in vivo, windgrass (Apera spica-venti); conditions: 320 g/ha; for herbicidal effect on L: windgrass (evaluation grade 0-5): foliage application after 14-day growth, evaluated three weeks after application
Summary of the method: as §3

[14] = tested on: velvetleaf; experiment: Test Example 5: herbicidal effect by foliage application, plastic box (Table 20, symbol M); format: in vivo, velvetleaf (Abutilon theophrasti); conditions: 320 g/ha; for herbicidal effect on M: velvetleaf (evaluation grade 0-5): foliage application after 14-day growth, evaluated three weeks after application
Summary of the method: as §3

[15] = tested on: redroot pigweed; experiment: Test Example 5: herbicidal effect by foliage application, plastic box (Table 20, symbol N); format: in vivo, redroot pigweed (Amaranthus retroflexus); conditions: 320 g/ha; for herbicidal effect on N: redroot pigweed (evaluation grade 0-5): foliage application after 14-day growth, evaluated three weeks after application
Summary of the method: as §3

[16] = tested on: lambsquarters; experiment: Test Example 5: herbicidal effect by foliage application, plastic box (Table 20, symbol O); format: in vivo, lambsquarters (Chenopodium album); conditions: 320 g/ha; for herbicidal effect on O: lambsquarters (evaluation grade 0-5): foliage application after 14-day growth, evaluated three weeks after application
Summary of the method: as §3

[17] = tested on: chickweed; experiment: Test Example 5: herbicidal effect by foliage application, plastic box (Table 20, symbol P); format: in vivo, common chickweed (Stellaria media); conditions: 320 g/ha; for herbicidal effect on P: chickweed (evaluation grade 0-5): foliage application after 14-day growth, evaluated three weeks after application
Summary of the method: as §3

[18] = tested on: persian speedwell; experiment: Test Example 5: herbicidal effect by foliage application, plastic box (Table 20, symbol R); format: in vivo, Persian speedwell (Veronica persica); conditions: 320 g/ha; for herbicidal effect on R: persian speedwell (evaluation grade 0-5): foliage application after 14-day growth, evaluated three weeks after application
Summary of the method: as §3

[19] = foliage application, three weeks after application

| Structure (SMILES) | Herbicidal effect, A: late watergrass [1] | Herbicidal effect, B: Japanese bulrush [2] | Herbicidal effect, C: oval-leafed pondweed [3] | herbicidal effect on barnyard grass (H) [4] | herbicidal effect on Chinese sprangletop (D) [5] | herbicidal effect on rice flat sedge (E) [6] | herbicidal effect on F: southern crabgrass (evaluation grade 0-5) [7] | herbicidal effect on G: green foxtail (evaluation grade 0-5) [8] | herbicidal effect on H: barnyard grass (evaluation grade 0-5) [9] | herbicidal effect on I: wild oat (evaluation grade 0-5) [10] | herbicidal effect on J: blackgrass (evaluation grade 0-5) [11] | herbicidal effect on K: Italian ryegrass (evaluation grade 0-5) [12] | herbicidal effect on L: windgrass (evaluation grade 0-5) [13] | herbicidal effect on M: velvetleaf (evaluation grade 0-5) [14] | herbicidal effect on N: redroot pigweed (evaluation grade 0-5) [15] | herbicidal effect on O: lambsquarters (evaluation grade 0-5) [16] | herbicidal effect on P: chickweed (evaluation grade 0-5) [17] | herbicidal effect on R: persian speedwell (evaluation grade 0-5) [18] | also measured |
| --- | --- | --- | --- | --- | --- | --- | --- | --- | --- | --- | --- | --- | --- | --- | --- | --- | --- | --- | --- |
| COc1ccccc1-c1sc2cc(CO)ccc2c1-c1c(O)c(C)nn(C)c1=O [3-135] | 2 (Herbicidal rate of 20% or more and less than 40%) | 2 (Herbicidal rate of 20% or more and less than 40%) | 0 (Herbicidal rate of 5% or less (almost no effect)) | 4 (Herbicidal rate of 70% or more and less than 90%) | 3 (Herbicidal rate of 40% or more and less than 70%) | 2 (Herbicidal rate of 20% or more and less than 40%) | – | – | – | – | – | – | – | – | – | – | – | – | F: southern crabgrass, herbicidal effect grade [7, 19]: 4 (Herbicidal rate of 70% or more and less than 90%); G: green foxtail, herbicidal effect grade [8, 19]: 5 (Herbicidal rate of 90% or more (almost completely withered)); H: barnyard grass, herbicidal effect grade [9, 19]: 3 (Herbicidal rate of 40% or more and less than 70%); I: wild oat, herbicidal effect grade [10, 19]: 4 (Herbicidal rate of 70% or more and less than 90%); J: blackgrass, herbicidal effect grade [11, 19]: 3 (Herbicidal rate of 40% or more and less than 70%); K: Italian ryegrass, herbicidal effect grade [12, 19]: 3 (Herbicidal rate of 40% or more and less than 70%); L: windgrass, herbicidal effect grade [13, 19]: 2 (Herbicidal rate of 20% or more and less than 40%); M: velvetleaf, herbicidal effect grade [14, 19]: 3 (Herbicidal rate of 40% or more and less than 70%); N: redroot pigweed, herbicidal effect grade [15, 19]: 4 (Herbicidal rate of 70% or more and less than 90%); O: lambsquarters, herbicidal effect grade [16, 19]: 2 (Herbicidal rate of 20% or more and less than 40%); P: chickweed, herbicidal effect grade [17, 19]: 4 (Herbicidal rate of 70% or more and less than 90%); R: persian speedwell, herbicidal effect grade [18, 19]: 4 (Herbicidal rate of 70% or more and less than 90%) |
| CCCC(=O)Oc1c(C)nn(C)c(=O)c1-c1c(-c2ccccc2C)sc2c(Cl)cccc12 [4-061] | 3 (Herbicidal rate of 40% or more and less than 70%) | 0 (Herbicidal rate of 5% or less (almost no effect)) | 0 (Herbicidal rate of 5% or less (almost no effect)) | 3 (Herbicidal rate of 40% or more and less than 70%) | 3 (Herbicidal rate of 40% or more and less than 70%) | 4 (Herbicidal rate of 70% or more and less than 90%) | 0 (Herbicidal rate of 5% or less (almost no effect)) | 0 (Herbicidal rate of 5% or less (almost no effect)) | 0 (Herbicidal rate of 5% or less (almost no effect)) | 0 (Herbicidal rate of 5% or less (almost no effect)) | 0 (Herbicidal rate of 5% or less (almost no effect)) | 0 (Herbicidal rate of 5% or less (almost no effect)) | 0 (Herbicidal rate of 5% or less (almost no effect)) | 0 (Herbicidal rate of 5% or less (almost no effect)) | 2 (Herbicidal rate of 20% or more and less than 40%) | 0 (Herbicidal rate of 5% or less (almost no effect)) | 3 (Herbicidal rate of 40% or more and less than 70%) | 2 (Herbicidal rate of 20% or more and less than 40%) | – |
| CCc1ccccc1-c1sc2c(Cl)cccc2c1-c1c(O)c(C)nn(C)c1=O [4-062] | 0 (Herbicidal rate of 5% or less (almost no effect)) | 2 (Herbicidal rate of 20% or more and less than 40%) | 0 (Herbicidal rate of 5% or less (almost no effect)) | 4 (Herbicidal rate of 70% or more and less than 90%) | 4 (Herbicidal rate of 70% or more and less than 90%) | 3 (Herbicidal rate of 40% or more and less than 70%) | 1 (Herbicidal rate of 5% or more and less than 20%) | 3 (Herbicidal rate of 40% or more and less than 70%) | 1 (Herbicidal rate of 5% or more and less than 20%) | 0 (Herbicidal rate of 5% or less (almost no effect)) | 0 (Herbicidal rate of 5% or less (almost no effect)) | 0 (Herbicidal rate of 5% or less (almost no effect)) | 0 (Herbicidal rate of 5% or less (almost no effect)) | 2 (Herbicidal rate of 20% or more and less than 40%) | 3 (Herbicidal rate of 40% or more and less than 70%) | 0 (Herbicidal rate of 5% or less (almost no effect)) | 3 (Herbicidal rate of 40% or more and less than 70%) | 3 (Herbicidal rate of 40% or more and less than 70%) | – |
